Laboratory results taken from US20230339939A1 (Bayer Aktiengesellschaft, priority 2020, published 2023).
pIC50: −log10 of the molar value.

Tests used:
CSNK1A1 = CSNK1A1 (Homo sapiens (Human), UniProt P48729); test: CSNK1A1 Assay 2 (ADP-Glo, 1 μM ATP, substrate biotin-Ahx-KRRRAL-pS-VASLPGL); assay type: biochemical; conditions: median, read-out: CSNK1A1 Assay 2 IC50 [mol/l] (median)
Protocol: CSNK1A1-inhibitory activity of compounds of the present invention in presence of 1 μM adenosine-tri-phosphate (ATP) was quantified employing the CSNK1A1 assay as described in the following paragraphs. In essence, the enzyme activity is measured by quantification of the adenosine-di-phosphate (ADP), which is generated as a co-product of the enzyme reaction, via the “ADP-Glo™ Kinase Assay” kit from the company Promega. This detection system works as follows: In a first step the ATP not consumed in the kinase reaction is quantitatively converted to cAMP employing an adenylate cyclase (“ADP-Glo-reagent”), then the adenylate cyclase is stopped and the ADP generated in the kinase reaction converted to ATP which generates in a luciferase-based reaction a glow-luminescence signal (“Kinase Detection Reagent”).
(§1) Recombinant fusion protein of N-terminal Glutathion-S-Transferase (GST) and full-length human CSNK1A1, expressed by baculovirus infected insect cells and purified via Glutathion affinity chromatography, was purchased from Life Technologies (product no. PV4174) and used as enzyme. As substrate for the kinase reaction the biotinylated peptide biotin-Ahx-KRRRAL-pS-VASLPGL (C-terminus in amide form) was used which can be purchased e.g. from the company Biosyntan (Berlin-Buch, Germany).
For the assay 50 nl of a 100 fold concentrated solution of the test compound in DMSO was pipetted into a white 1536-well microtiter plate (Greiner Bio-One, Frickenhausen, Germany), 2 μL of a solution of CSNK1A1 in aqueous assay buffer [50 mM HEPES pH 7.5, 10% (v/v) glycerol, 10 mM MgCl2, 50 mM NaCl, 1 mM dithiothreitol, 0.01% (w/v) bovine serum albumin, 0.01% (v/v) Triton X-100] were added and the mixture was incubated for 15 min at 22° C. to allow pre-binding of the test compounds to the enzyme before the start of the kinase reaction. […] The concentration of CSNK1A1 was adjusted depending of the activity of the enzyme lot and was chosen appropriate to have the assay in the linear range, a typical concentrations are about 0.0375 ng/μL. The reaction was stopped by the addition of 2.5 μL of “ADP-Glo-reagent” (1:1.5 fold diluted with water) and the resulting mixture was incubated at 22° C. for 1 h to convert the ATP not consumed in the kinase reaction completely […]. Subsequently 2.5 μL of the “kinase detection reagent” (1.2 fold more concentrated than recommended by the producer) were added, the resulting mixture was incubated at 22° C. for 1 h and then the luminescence measured with a suitable measurement instrument (e.g. Viewlux™ from Perkin-Elmer). The amount of emitted light was taken as a measure for the amount of ADP generated and thereby for the activity of the CSNK1A1.

CSNK1D = CSNK1D (Homo sapiens (Human), UniProt P48730); test: CSNK1D Assay (ADP-Glo, 1 μM ATP); assay type: biochemical; conditions: median, read-out: CSNK1D IC50 [mol/l] (median)
Protocol: CSNK1D-inhibitory activity of compounds of the present invention in presence of 1 μM adenosine-tri-phosphate (ATP) was quantified employing the CSNK1 D assay as described in the following paragraphs. In essence, the enzyme activity is measured by quantification of the adenosine-di-phosphate (ADP), which is generated as a co-product of the enzyme reaction, via the “ADP-Glo™ Kinase Assay” kit from the company Promega. This detection system works as follows: In a first step the ATP not consumed in the kinase reaction is quantitatively converted to cAMP employing an adenylate cyclase (“ADP-Glo-reagent”), then the adenylate cyclase is stopped and the ADP generated in the kinase reaction converted to ATP which generates in a luciferase-based reaction a glow-luminescence signal (“Kinase Detection Reagent”).
as §1, with “CSNK1D,” for “CSNK1A1,”, “PV3665)” for “PV4174)”, “Btn-Ahx-[…]” for “biotin-Ahx-KRRRAL-pS-VASLPGL”
For the assay 50 nl of a 100 fold concentrated solution of the test compound in DMSO was pipetted into a white 1536-well microtiter plate (Greiner Bio-One, Frickenhausen, Germany), 2 μL of a solution of CSNK1D in aqueous assay buffer [50 mM HEPES pH 7.5, 10% (v/v) glycerol, 10 mM MgCl2, 50 mM NaCl, 1 mM dithiothreitol, 0.01% (w/v) bovine serum albumin, 0.01% (v/v) Triton X-100] were added and the mixture was incubated for 15 min at 22° C. to allow pre-binding of the test compounds to the enzyme before the start of the kinase reaction. […] The concentration of CSNK1D was adjusted depending of the activity of the enzyme lot and was chosen appropriate to have the assay in the linear range, a typical concentration is about 0.5 ng/μL. The reaction was stopped by the addition of 2.5 μL of “ADP-Glo-reagent” (1:1.5 fold diluted with water) and the resulting mixture was incubated at 22° C. for 1 h to convert the ATP not consumed in the kinase reaction completely […]. Subsequently 2.5 μL of the “kinase detection reagent” (1.2 fold more concentrated than recommended by the producer) were added, the resulting mixture was incubated at 22° C. for 1 h and then the luminescence measured with a suitable measurement instrument (e.g. Viewlux™ from Perkin-Elmer). The amount of emitted light was taken as a measure for the amount of ADP generated and thereby for the activity of the CSNK1D.

Chain of CSNK1A1 (P48729 whole entry): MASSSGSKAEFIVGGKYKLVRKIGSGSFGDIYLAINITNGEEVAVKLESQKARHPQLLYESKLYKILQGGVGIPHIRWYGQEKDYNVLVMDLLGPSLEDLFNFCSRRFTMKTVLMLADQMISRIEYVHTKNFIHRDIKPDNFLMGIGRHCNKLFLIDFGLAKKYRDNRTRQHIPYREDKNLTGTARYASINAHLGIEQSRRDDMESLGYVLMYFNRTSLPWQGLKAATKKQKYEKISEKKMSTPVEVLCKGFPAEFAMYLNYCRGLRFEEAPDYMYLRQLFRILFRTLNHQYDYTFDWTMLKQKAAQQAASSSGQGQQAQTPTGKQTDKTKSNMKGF
Chain of CSNK1D (P48730 whole entry): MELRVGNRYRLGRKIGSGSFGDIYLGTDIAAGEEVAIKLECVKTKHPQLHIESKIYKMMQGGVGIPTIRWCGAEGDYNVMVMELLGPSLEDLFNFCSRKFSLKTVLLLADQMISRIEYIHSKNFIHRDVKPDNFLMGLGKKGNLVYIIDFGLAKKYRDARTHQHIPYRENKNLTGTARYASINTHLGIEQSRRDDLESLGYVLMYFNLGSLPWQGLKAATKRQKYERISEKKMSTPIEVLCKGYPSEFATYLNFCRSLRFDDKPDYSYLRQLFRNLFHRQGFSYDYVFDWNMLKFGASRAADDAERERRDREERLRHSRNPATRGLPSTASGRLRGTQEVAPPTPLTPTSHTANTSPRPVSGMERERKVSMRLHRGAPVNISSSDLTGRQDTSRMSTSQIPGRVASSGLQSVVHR

SMILES	pIC50 (CSNK1A1)	pIC50 (CSNK1D)
CC(C(=O)Nc1cc(-c2[nH]c3ccc(F)nc3c2-c2ccccn2)ccn1)c1ccc(F)cc1 (single isomer, unassigned; (+)) [Example 3, (+)-2-(4-fluorophenyl)-N-{4-[5-fluoro-3-(pyridin-2-yl)-1H-pyrrolo[3,2-b]pyridin-2-yl]pyridin-2-yl}propanamide]	9.00	8.54
O=C(Cc1ccccc1)Nc1cc(-c2[nH]c3cccnc3c2-c2ccccn2)ccn1 [Example 46, 2-phenyl-N-(4-(3-(pyridin-2-yl)-1H-pyrrolo[3,2-b]pyridin-2-yl)pyridin-2-yl)acetamide]	8.65	8.24
CN1CCC(N(C)c2ccnc3c(-c4ccccn4)c(-c4ccnc(NC(=O)Cc5ccc(F)cc5)c4)[nH]c23)CC1 [Example 39, 2-(4-fluorophenyl)-N-(4-{7-[methyl(1-methylpiperidin-4-yl)amino]-3-(pyridin-2-yl)-1H-pyrrolo[3,2-b]pyridin-2-yl}pyridin-2-yl)acetamide]	8.46	7.87
C=Cc1ccnc2c(-c3ccccn3)c(-c3ccnc(NC(=O)Cc4ccc(F)cc4)c3)[nH]c12 [Example 33, N-{4-[7-ethenyl-3-(pyridin-2-yl)-1H-pyrrolo[3,2-b]pyridin-2-yl]pyridin-2-yl}-2-(4-fluorophenyl)acetamide]	8.40	8.04
O=C(Cc1ccc(F)cc1)Nc1cc(-c2[nH]c3cccnc3c2-c2ccc(Cl)s2)ccn1 [Example 17, N-{4-[3-(5-chlorothiophen-2-yl)-1H-pyrrolo[3,2-b]pyridin-2-yl]pyridin-2-yl}-2-(4-fluorophenyl)acetamide]	8.73	8.50
COCCc1ccnc2c(-c3ccccn3)c(-c3ccnc(NC(=O)Cc4ccc(F)cc4)c3)[nH]c12 [Example 36, 2-(4-fluorophenyl)-N-{4-[7-(2-methoxyethyl)-3-(pyridin-2-yl)-1H-pyrrolo[3,2-b]pyridin-2-yl]pyridin-2-yl}acetamide]	7.83	7.83
Cc1cc2[nH]c(-c3ccnc(NC(=O)C(C)c4ccc(F)cc4)c3)c(-c3ccccn3)c2nc1F (single isomer, unassigned; (+)) [Example 29, (+)-N-{4-[5-fluoro-6-methyl-3-(pyridin-2-yl)-1H-pyrrolo[3,2-b]pyridin-2-yl]pyridin-2-yl}-2-(4-fluorophenyl)propanamide]	7.86	7.52
O=C(Cc1ccc(F)cc1)Nc1cc(-c2[nH]c3c(C4CC4)ccnc3c2-c2ccccn2)ccn1 [Example 35, N-{4-[7-cyclopropyl-3-(pyridin-2-yl)-1H-pyrrolo[3,2-b]pyridin-2-yl]pyridin-2-yl}-2-(4-fluorophenyl)acetamide]	8.55	8.38
CC(C(=O)Nc1cc(-c2[nH]c3cccnc3c2-c2ccccn2)ccn1)c1ccc(F)cc1 (single isomer, unassigned; (-)) [Example 8, (−)-2-(4-fluorophenyl)-N-{4-[3-(pyridin-2-yl)-1H-pyrrolo[3,2-b]pyridin-2-yl]pyridin-2-yl}propanamide]	8.12	7.84
COc1ccnc2c(-c3ccccn3)c(-c3ccnc(NC(=O)Cc4ccc(F)cc4)c3)[nH]c12 [Example 31, 2-(4-fluorophenyl)-N-{4-[7-methoxy-3-(pyridin-2-yl)-1H-pyrrolo[3,2-b]pyridin-2-yl]pyridin-2-yl}acetamide]	8.60	8.36
Cc1cc2[nH]c(-c3ccnc(NC(=O)C(C)c4ccc(F)cc4)c3)c(-c3ccccn3)c2nc1F (racemic) [Example 28, N-{4-[5-fluoro-6-methyl-3-(pyridin-2-yl)-1H-pyrrolo[3,2-b]pyridin-2-yl]pyridin-2-yl}-2-(4-fluorophenyl)propanamide]	8.34	7.95
Cc1cc2[nH]c(-c3ccnc(NC(=O)C(C)c4ccc(F)cc4)c3)c(-c3ccccn3)c2nc1F (single isomer, unassigned; (-)) [Example 30, (−)-N-{4-[5-fluoro-6-methyl-3-(pyridin-2-yl)-1H-pyrrolo[3,2-b]pyridin-2-yl]pyridin-2-yl}-2-(4-fluorophenyl)propanamide]	8.77	8.33
CC(C(=O)Nc1cc(-c2[nH]c3cc(Cl)cnc3c2-c2ccccn2)ccn1)c1ccc(F)cc1 (centres unmarked) [Example 52, N-{4-[6-chloro-3-(pyridin-2-yl)-1H-pyrrolo[3,2-b]pyridin-2-yl]pyridin-2-yl}-2-(4-fluorophenyl)propanamide]	8.20	7.69
COCC(C(=O)Nc1cc(-c2[nH]c3cccnc3c2-c2ccccn2)ccn1)c1ccc(F)cc1 (racemic) [Example 43, (2RS)-2-(4-fluorophenyl)-3-methoxy-N-(4-(3-(pyridin-2-yl)-1H-pyrrolo[3,2-b]pyridin-2-yl)pyridin-2-yl)propanamide]	8.45	8.19
O=C(Cc1ccc(F)cc1)Nc1cc(-c2[nH]c3cccnc3c2-c2ncccn2)ccn1 [Example 16, 2-(4-fluorophenyl)-N-{4-[3-(pyrimidin-2-yl)-1H-pyrrolo[3,2-b]pyridin-2-yl]pyridin-2-yl}acetamide]	8.32	8.04
O=C(Cc1ccc(F)cc1)Nc1cc(-c2[nH]c3cccnc3c2-c2ncccn2)ccn1 [Example 51, 2-(4-fluorophenyl)-N-{4-[3-(pyrimidin-2-yl)-1H-pyrrolo[3,2-b]pyridin-2-yl]pyridin-2-yl}acetamide]	8.10	7.70
CN1CCN(c2ccnc3c(-c4ccccn4)c(-c4ccnc(NC(=O)Cc5ccc(F)cc5)c4)[nH]c23)CC1 [Example 38, 2-(4-fluorophenyl)-N-{4-[7-(4-methylpiperazin-1-yl)-3-(pyridin-2-yl)-1H-pyrrolo[3,2-b]pyridin-2-yl]pyridin-2-yl}acetamide]	8.48	8.25
O=C(Cc1ccc(F)cc1)Nc1cc(-c2[nH]c3cc(F)cnc3c2-c2ccccn2)ccn1 [Example 9, 2-(4-fluorophenyl)-N-{4-[6-fluoro-3-(pyridin-2-yl)-1H-pyrrolo[3,2-b]pyridin-2-yl]pyridin-2-yl}acetamide]	8.77	8.32
Cc1cc2[nH]c(-c3ccnc(NC(=O)Cc4ccc(F)cc4)c3)c(-c3ccccn3)c2nc1F [Example 27, N-{4-[5-fluoro-6-methyl-3-(pyridin-2-yl)-1H-pyrrolo[3,2-b]pyridin-2-yl]pyridin-2-yl}-2-(4-fluorophenyl)acetamide]	8.80	8.29
